What was measured:
Format in all cases: cell-based, human
[1] = test system: p-c-Jun, p-ERK, p-Bad, Bax/Bcl-2 in SH-SY5Y cells; test: Western blotting of anti-apoptotic signaling in MG-stressed cells; details: 0.6 mM MG 16 h vs control cells
Description: (§1) Figure 7 PrRP31 and palm^11-PrRP31 affected anti-apoptotic signaling in SH-SY5Y cells. Immunoblots: (a) and their quantifications: (b). SH-SY5Y cells were pretreated with PrRP31 and palm^11-PrRP31 at a concentration of 1 × 10^−5 M for 4 h and then stressed with 0.6 mM MG for 16 h. Activation was expressed as the ratio of the activated protein to the total amount of the protein, both normalized to loading control, GAPDH. Data are presented as the means ± SEM as a percentage of control cells treated with medium alone. Analysis is made vs. MG by a Student’s t-test, * p < 0.5, ** p < 0.01 (each sample in triplicates).
(§2) For the investigation of the molecular mechanism of PrRP31 and its analog in the cells, signaling pathways were studied by Western blotting (WB). The cells were cultured in 6-well plates at a density of 800,000 cells per well. Growth medium was exchanged for serum-free DMEM 16 h before an experiment, and then, the cells were incubated with PrRP31, palm^11-PrRP31, or scrambled peptide at a final concentration of 1 × 10^−5 M or insulin at a concentration of 1 × 10^−7 M at 37 °C for 8 min. The cells were rapidly cooled on ice and lysed in 400 µl of Laemmli sample buffer (62.5 mM Tris-HCl with pH 6.8, 2% SDS, 10% glycerol, 0.01% bromophenol blue, 5% mercaptoethanol, 50 mM NaF, and 1 mM Na3VO4) and stored at −20 °C. Afterward, the cell lysates were analyzed by WB. SDS-electrophoresis and WB were carried out using a Criterion system with a 26-well 4−15% Criterion^TM TGX^TM Precast Midi Protein Gel (Bio-Rad, Hercules, CA, USA) at a constant voltage of 200 V or 100 V, respectively.
(§3) Subsequently, the membranes were incubated overnight with primary antibody (Ab) at 4 °C, according to the manufacturer´s instructions (Table 2). The next day, the membranes were incubated with an HRP-linked secondary antibody for 1 h at room temperature. Chemiluminescence was visualized with a ChemiDoc^TM System (Bio-Rad). Band intensities were normalized using glyceraldehyde 3-phosphate dehydrogenase (GAPDH) as an internal loading control.
(§4) For analysis of the molecular mechanism during MG stress, the growth medium was exchanged for serum-free DMEM 16 h before the experiment. The cells were pretreated with 1 × 10^−5 M PrRP31 or palm^11-PrRP31 for 4 h; then, MG was added to a final concentration of 0.6 mM, and the cells were incubated at 37 °C for 16 h. The controls and compounds were tested in triplicate.

[2] = test system: Tau protein phosphorylation in SH-SY5Y cells; test: Western blotting of Tau phosphorylation in MG-stressed cells; details: 0.6 mM MG 16 h vs control cells
Description: as §1, with “8” for “7”, “attenuate Tau hyperphosphorylation at the epitope Ser396” for “affected anti-apoptotic signaling”, “SH-SY5Y. Immunoblots with:” for “SH-SY5Y cells. Immunoblots:”, “sample replicate” for “sample”, “triplicate).” for “triplicates).”
as §2, §3, §4

[3] = test system: p-m-Tor, p-GSK-3β, p-ERK, p-CREB in SH-SY5Y cells; test: Western blotting with selective inhibitors of signaling pathways
Description: Immunoblots with PrRP31 and palm^11-PrRP31: (a) and insulin: (b) and their quantifications: (c). SH-SY5Y cells were incubated firstly with selective inhibitors for 2 min and then either with PrRP31 and its palmitoylated analog at a final concentration 1 × 10^−5 M, or with insulin in the final concentration 1 × 10^−7 M at 37 °C for 8 min, or alone in serum-free medium. Activated protein was normalized to loading control, GAPDH. Data are presented as the means ± SEM as a percentage of control cells treated with medium alone. Analysis is made between groups as shown in the graph by a Student’s t-test, * p < 0.5, ** p < 0.01, *** p < 0.001(each sample in triplicates).
(§5) Eight minutes of incubation was performed in a series of experiments with different exposure times (5, 10, 15, 30, and 60 min) to PrRP31 and its palmitoylated analog. Activation of analogs was strongest after 10 min. Then, the cells were treated with inhibitors of signaling pathways for 2 min, and analogs were added for 8 min. The time of exposure was set to 8 min to ensure that the incubation time for PrRP31 and its palmitoylated analog was the same. The controls and compounds were tested in triplicate in three independent experiments. The PI3K/Akt pathway is one of the main signaling pathways of insulin; therefore, insulin was used as a positive control. Scrambled peptide was used as a negative control. Activation is expressed as the ratio of the activated protein to the total amount of the protein. GAPDH was used as a loading control.
For further research, inhibitors of signaling pathways were used. The growth medium was exchanged for serum-free DMEM 16 h before the experiment. On the day of the experiment, cells were incubated for 2 min with rapamycin, SB216736 or U0126 at a final concentration of 1 × 10^−6 M; then, PrRP31, palm^11-PrRP31 or scrambled peptide at a final concentration of 1 × 10^−5 M or insulin at a concentration of 1 × 10^−7 M was added for 8 min. The plates were stored at 37 °C. The controls and compounds were tested in triplicate.

[4] = test system: PI3K/Akt signaling pathway in SH-SY5Y cells; test: Western blotting of PI3K/Akt signaling pathway after 8 min incubation; details: 37 °C
Description: Figure 1 Prolactin-releasing peptide 31 (PrRP31) and palm^11-PrRP31 increased phosphoinositide-3 kinase (PI3K/Akt) signaling pathway in SH-SY5Y cells. Immunoblots: (a) and their quantifications: (b). SH-SY5Y cells were incubated either with PrRP31 and its palmitoylated analog and scrambled at a final concentration 1 × 10^-5 M, or with insulin at the final concentration 1 × 10^−7 M at 37 °C for 8 min, or medium alone (control). Activation was expressed as the ratio of the activated protein to the total amount of the protein, both normalized to loading control, glyceraldehyde 3-phosphate dehydrogenase (GAPDH). Data are presented as the means ± SEM as a percentage of control cells analyzed by one-way ANOVA followed by the Dunnett post hoc test, * p < 0.5, ** p < 0.01, **** p < 0.0001 (n = 3, each sample in triplicates).
as §2, §3, §5

[5] = inhibitor 1 × 10^−6 M for 2 min, then peptide for 8 min, under the control level
[6] = PrRP31 and palm^11-PrRP31 1 × 10^−5 M, insulin 1 × 10^−7 M, 37 °C, 8 min

CC(=O)C=O [MG, methylglyoxal, reference compound]
level of p-Bad (Ser112)/Bad after MG [1]: increased
level of p-Bad (Ser136)/Bad after MG [1]: increased
level of p-c-Jun (Ser73)/c-Jun after MG [1]: increased
Tau phosphorylation at Ser198/199/202 (Tau 1)/Tau 5 after MG [2]: tended to increase
Tau phosphorylation at Ser396 after MG [2]: increased

Cn1cc(C2=C(c3ccc(Cl)cc3Cl)C(=O)NC2=O)c2ccccc21 [SB216736]
effect on the level of p-GSK-3β (Ser9) in cells treated with insulin ([3]; inhibitor 1 × 10^−6 M for 2 min, then insulin 1 × 10^−7 M for 8 min): tended to decrease
effect on the palm^11-PrRP31-induced increase of p-GSK-3β (Ser9) ([3]; inhibitor 1 × 10^−6 M for 2 min, then palm^11-PrRP31 1 × 10^−5 M for 8 min): significantly reversed

N#CC(=C(/N)Sc1ccccc1N)/C(C#N)=C(/N)Sc1ccccc1N [U0126]
effect on the increase of p-ERK and p-CREB by PrRP31, palm^11-PrRP31 and insulin [3, 5]: significantly blocked

CO[C@H]1C[C@@H]2CC[C@@H](C)[C@@](O)(O2)C(=O)C(=O)N2CCCC[C@H]2C(=O)O[C@H]([C@H](C)C[C@@H]2CC[C@@H](O)[C@H](OC)C2)CC(=O)[C@H](C)/C=C(\C)[C@@H](O)[C@@H](OC)C(=O)[C@H](C)C[C@H](C)/C=C/C=C/C=C/1C [rapamycin, Rapamycin]
effect on the increase of p-m-Tor (Ser2448) by PrRP31, palm^11-PrRP31 and insulin [3, 5]: inhibited

GHFTHSIRMI K^11 (γ-E (N-palm))TPRNASVYARPCitDWWGICitPES [scrambled-palm^11-PrRP31]
effect on the PI3K/Akt pathway ([4]; negative control, 1 × 10^-5 M): did not significantly affect

insulin: human insulin used as a positive control
activation of proteins of the insulin signaling cascade ([4]; positive control, 1 × 10^−7 M): significantly activated
p-CREB after incubation with peptide, no inhibitor [3, 6]: increased
p-ERK after incubation with peptide, no inhibitor [3, 6]: increased
p-m-Tor (Ser2448) after application of peptide, no inhibitor ([3]; PrRP31 and palm^11-PrRP31 1 × 10^−5 M, insulin 1 × 10^−7 M, 37 °C, 8 min, normalized to GAPDH, triplicates): significantly increased
p-GSK-3β (Ser9) after incubation with peptide, no inhibitor ([3]; palm^11-PrRP31 1 × 10^−5 M, insulin 1 × 10^−7 M, 37 °C, 8 min, normalized to GAPDH, triplicates): slight increase
